Reference: patent publication EP1770089A1, “Pyranodibenzofuran derivatives with antifungal and antibacterial activity” (priority 2005, dated 2007)
In brackets after ≈: the same amount, converted by molar mass. Where two headings read alike, the source gives them in different places.

Key:
Assay type in all cases: cell-based
[1] = test system: Mycobacterium smegmatis mc^2155; experiment: Mycobacterial growth inhibition in liquid culture (MIC99); conditions: two-day's growth at 37°C, 99% decrease vs DMSO control; for MIC99: Mycolicibacterium smegmatis, MC2155|MC^2155, 48 h
Candida albicans = experiment: In vitro activity (MIC99) against Candida albicans; conditions: > 99 % inhibition of growth; for MIC99: Candida albicans, read-out: MIC99 C. albicans
Method: The antifungal activity of compounds 5, 9, and 11-22 against Candida albicans was analyzed by the measure of the MIC99 concentration (see Table 1). Table 1. In Vitro Activity against Candida albicans of pyranodibenzofuran derivatives

[2] = test system: Mycobacterium tuberculosis H37Rv; experiment: Mycobacterial growth inhibition in liquid culture, CFU plating (MIC99); conditions: for MIC99: 504 h
L1210 cells = experiment: Cytotoxicity, MTA (Microculture Tetrazolium Assay) test; conditions: cytotoxicity on L1210 cells
Method: The cytotoxicity of compounds 5, 9, and 10-21 was determined in L1210 cells using the MTA (Microculture Tetrazolium Assay) test.

M. tuberculosis H37Ra = experiment: Growth inhibition in liquid culture, CFU plating (MIC99); conditions: Mycobacterium tuberculosis
[3] = test system: M. tuberculosis Beijing (GC1237); experiment: as above; conditions: Mycobacterium tuberculosis
M. bovis BCG (Pasteur) = experiment: microbe, parasite or virus in culture; conditions: Mycobacterium tuberculosis variant bovis BCG
M. microti (MYC-942272) = experiment: Growth inhibition in liquid culture, CFU plating (MIC99)
Pseudomonas aeruginosa = experiment: Growth inhibition in liquid medium, CFU plating (MIC99); conditions: Gram-negative
Method: (§1) To further assess its specificity, effect of compounds 9 and 16 was also assessed in vitro growth in liquid medium on a whole range of bacteria (Corynebacterium jeikeium, Escherichia coli, Enterococcus faecalis, Klebsiella oxytoca, Nocardia asteroides, Staphylococcus aureus, Pseudomonas aeruginosa and Streptomyces). Compounds were solubilized in dimethylsulfoxide (DMSO) and 100 µl of the appropriate dilution were added to a 5 ml culture with predetermined bacterium inoculum. Quantification of the bacteria was carried out by plating on appropriate agar serial 5-fold dilutions in medium, and colony forming units (CFUs) were ascertained after 24 to 48 hours according to the strains. Table 5. Antibacterial activity of compounds 9 and 16 on other bacteria

Escherichia coli = experiment: as above; conditions: Gram-negative
Method: as §1

Nocardia asteroides = experiment: as above; conditions: Actinomycetes
Method: as §1

Corynebacterium jeikeium = experiment: as above; conditions: Actinomycetes
Method: as §1

Enterococcus faecalis = experiment: as above; conditions: Gram-positive
Method: as §1

Macrophages = experiment: Cytotoxicity, MTT test; conditions: cytotoxicity on macrophages
Method: (§2) The cytotoxicity of compounds 9 and 16 was further assessed in various mammalian cell lines using the MTT test. RAW and A549 cell lines were maintained in RPMI 1640 medium without L-GLU supplemented with 10% Fetal calf serum (FCS), penicillin-streptomycin solution 1 % at 37 °C in air with 5 % CO2. VERO cell lines were maintained in D-MEM medium without L-GLU supplemented with 10% Fetal calf Serum (FCS), penicillin-streptomycin solution 1 % at 37 °C in air with 5 % CO2. Proliferating cells were seeded for 96-well microtitration plates at a density of 5. 10^5 cells/mL which were further incubated for 24 h at 37°C under 5 % CO2 in air before each assay. Various concentrations of solutions of 9 and 16 (10 µl/well) in 1.25 % dimethylsulfoxide (DMSO)) were added and then incubated for 24 hours under the above conditions. At the end of incubation, 20 µl of dimethylthiazolyl diphenyl tetrazolium bromide solution (MTT) (7.5 mg/ml) was then added into each well and further incubated for 4 h at 37°C to allow the formation of formazan. The crystals of formazan were then dissolved with 100 µl of an acidic solution (Sodium dodecyl sulfate (SDS) 10 %, HCl 10 mM). The optical density of each well was measured at 595 nm using a Multiwell plate reader. The values given are the average means of six replicates. The 50 % inhibition concentration was determined by curve fitting.

VERO cells = experiment: Cytotoxicity, MTT test; conditions: for IC50: cytotoxicity on VERO cells, MTT, 24 hours
Method: as §2

[4] = read-out: MIC99 on M. smegmatis, mc2155
[5] = mc2155, read-out: MIC99 on M. smegmatis
[6] = Mycobacterium tuberculosis, H37RV, H37Rv, three weeks growth in 7H9, CFU on 7H11, NI = no inhibition at 1 mg/mL, read-out: MIC99 on M. tuberculosis
[7] = H37Rv, three weeks growth in 7H9, CFU on 7H11, NI = no inhibition at 1 mg/mL
[8] = Mycobacterium tuberculosis, H37RV, M. tuberculosis H37Rv, three week growth in 7H9/OADC, read-out: MIC99

CC1(C)Oc2cc3c(cc2[C@H](O)[C@@H]1O)oc1ccccc13 (racemic) [Compound 11, (±)cis-3,4-dihydro-3,4-dihydroxy-2,2-dimethyl-2H-benzofuro[2,3-g]-[1]-benzopyran]
MIC99 [1, 4]: 30 to 60 mg/L (≈ 106 to 211 µM)
MIC99 [1, 5]: 60 mg/L (≈ 211 µM)
MIC99 (Candida albicans): 27 mg/L (≈ 95 µM)
MIC99 [2, 6]: > 1000 mg/L
IC50 (L1210 cells; Mus musculus, read-out: IC50): 13 mg/L (≈ 45.7 µM)

CC1(C)Oc2ccc3oc4ccccc4c3c2[C@@H](O)[C@H]1O (racemic) [Compound 12, (±)cis-1,2-dihydro-1,2-dihydroxy-3,3-dimethyl-3H-benzofuro[3,2-f][1]benzopyran]
MIC99 [1, 4]: 30 to 60 mg/L (≈ 106 to 211 µM)
MIC99 [1, 5]: 30 mg/L (≈ 106 µM)
MIC99 (Candida albicans): > 160 mg/L
MIC99 [2, 6]: 60 mg/L (≈ 211 µM)
IC50 (L1210 cells; Mus musculus, read-out: IC50): 1.3 mg/L (≈ 4.57 µM)

CC1(C)Oc2ccc3oc4ccccc4c3c2C(=O)C1O (racemic) [Compound 13, (±)2,3-dihydro-2-hydroxy-3,3-dimethyl-1H-benzofuro[3,2-f][1]benzopyran-1-one]
MIC99 (Candida albicans): > 330 mg/L
IC50 (L1210 cells; Mus musculus, read-out: IC50): 5.04 mg/L (≈ 17.9 µM)

CC(=O)CC1(O)C(=O)c2c(ccc3oc4ccccc4c23)OC1(C)C (racemic) [Compound 14, (±)2,3-dihydro-2-hydroxy-3,3-dimethyl-2-(2-oxopropyl)-1Hbenzofuro[3,2f][1]benzopyran-1-one]
MIC99 C. albicans (Candida albicans): 150 mg/L (≈ 443 µM)
IC50 (L1210 cells): 18.981 mg/L (≈ 56.1 µM)

CC1(C)Oc2ccc3oc4ccccc4c3c2[C@@H](O)[C@@H]1O (racemic) [Compound 15, (±)trans-1,2,-dihydro-1,2-dihydroxy-3,3-dimethyl-3H-benzofuro[3,2-f][1]benzopyran]
MIC99 on M. smegmatis ([1]; mc2155): 30 mg/L (≈ 106 µM)
MIC99 C. albicans (Candida albicans): > 300 mg/L
MIC99 on M. tuberculosis [2, 7]: NI (No inhibition observed at the highest concentration tested (1 mg/mL))
IC50 (L1210 cells): 12.3405 mg/L (≈ 43.4 µM)

CC(=O)O[C@H]1c2cc3oc4ccccc4c3cc2OC(C)(C)[C@H]1OC(C)=O (racemic) [Compound 17, (±)cis-3,4-diacetoxy-3,4-dihydro-2,2-dimethyl-2H-benzofuro[2,3-g]-[1]-benzopyran]
MIC99 (Candida albicans): > 400 mg/L
IC50 (L1210 cells; Mus musculus, read-out: IC50): 8.52 mg/L (≈ 23.1 µM)

CC(=O)O[C@@H]1c2c(ccc3oc4ccccc4c23)OC(C)(C)[C@@H]1OC(C)=O (racemic) [Compound 18, (±)cis-1,2-diacetoxy-1,2-dihydro-3,3-dimethyl-3H-benzofuro[3,2-f][1]benzopyran]
MIC99 (Candida albicans): > 300 mg/L
IC50 (L1210 cells; Mus musculus, read-out: IC50): 9.35 mg/L (≈ 25.4 µM)

CC(=O)O[C@@H]1c2c(ccc3oc4ccccc4c23)OC(C)(C)[C@H]1OC(C)=O (racemic) [Compound 19, (±)trans-1,2,-diacetoxy-1,2-dihydro-3,3-dimethyl-3H-benzofuro[3,2-f][1]benzopyran]
MIC99 on M. smegmatis ([1]; mc2155): 180 mg/L (≈ 489 µM)
MIC99 C. albicans (Candida albicans): > 300 mg/L
MIC99 on M. tuberculosis [2, 7]: NI (No inhibition observed at the highest concentration tested (1 mg/mL))
IC50 (L1210 cells): 5.5005 mg/L (≈ 14.9 µM)

CC(=O)OC1C(=O)c2c(ccc3oc4ccccc4c23)OC1(C)C (racemic) [Compound 20, (±)2-acetoxy-2,3-dihydro-2-hydro-3,3-dimethyl-1H-benzofuro[3,2-f][1]benzopyran-1-one]
MIC99 C. albicans (Candida albicans): > 280 mg/L
IC50 (L1210 cells): 28.5 mg/L (≈ 87.9 µM)

C#CC(C)(C)Oc1ccc2oc3ccccc3c2c1 [Compound 5, 2-(1,1-dimethyl-propargyloxy)-dibenzofuran]
MIC99 [1, 4]: 12 mg/L (≈ 47.9 µM)
MIC99 (M. tuberculosis H37Ra): > 500 mg/L
MIC99 ([3]; read-out: MIC99): > 500 mg/L
MIC99 (M. bovis BCG (Pasteur)): > 500 mg/L
MIC99 (M. microti (MYC-942272)): > 500 mg/L
MIC99 [2, 6]: > 1000 mg/L
MIC99 [2, 8]: > 500 mg/L

C=C1Oc2ccc3oc4ccccc4c3c2C1(C)C [Compound 10, 1,2-dihydro-1,1-dimethyl-2-methylenebenzofuro[5,4-b]benzofuran]
MIC99 (Candida albicans): > 300 mg/L
IC50 (L1210 cells; Mus musculus, read-out: IC50): 3.71 mg/L (≈ 14.8 µM)

CC1(C)CCc2c(ccc3oc4ccccc4c23)O1 [Compound 16, 1,2-dihydro-3,3-dimethyl-3H-benzofuro[3,2-f][1]benzopyran]
MIC99 [1, 4]: 5 mg/L (≈ 19.8 µM)
MIC99 [1, 5]: 1 mg/L (≈ 3.96 µM)
MIC99 (M. tuberculosis H37Ra): 10 mg/L (≈ 39.6 µM)
MIC99 (Pseudomonas aeruginosa): > 500 mg/L
MIC99 (Escherichia coli): > 500 mg/L
MIC99 (Nocardia asteroides): 15 mg/L (≈ 59.4 µM)
MIC99 (Corynebacterium jeikeium): > 150 mg/L
MIC99 (Enterococcus faecalis): > 500 mg/L
MIC99 [3]: < 5 mg/L
MIC99 (M. bovis BCG (Pasteur)): 10 mg/L (≈ 39.6 µM)
IC50 (Macrophages; Macrophage, 24 h, read-out: IC50): > 50 mg/L
IC50 (Macrophages; 24 hours): > 100 mg/L
IC50 (VERO cells; Chlorocebus sabaeus, Vero, 24 h, read-out: IC50): > 50 mg/L
IC50 (VERO cells): 100 mg/L (≈ 396 µM)
Selectivity Index (VERO cells; summary statement, cell type not specified): above 10
MIC99 [2, 6]: 5 mg/L (≈ 19.8 µM)
MIC99 ([2]; Mycobacterium tuberculosis, H37RV, M. tuberculosis H37Rv, three week growth in 7H9/OADC): < 5 mg/L
MIC ([2]; Mycobacterium tuberculosis, H37RV, summary statement, read-out: MIC measured on M. tuberculosis): < 6.25 mg/L

NNC(=O)c1ccncc1 [INH, isoniazid, reference compound]
MIC99 [1, 5]: 13 mg/L (≈ 94.8 µM)
MIC99 (M. tuberculosis H37Ra): 1 mg/L (≈ 7.29 µM)
MIC99 ([3]; read-out: MIC99): 0.1 mg/L (≈ 0.729 µM)
MIC99 (M. bovis BCG (Pasteur)): 1 mg/L (≈ 7.29 µM)
MIC99 (M. microti (MYC-942272)): 0.1 mg/L (≈ 0.729 µM)
MIC99 [2, 6]: 0.1 mg/L (≈ 0.729 µM)
MIC99 [2, 8]: 0.1 mg/L (≈ 0.729 µM)
IC50 (L1210 cells; Mus musculus, read-out: IC50): 14 mg/L (≈ 102 µM)

Clc1ccc(COC(Cn2ccnc2)c2ccc(Cl)cc2Cl)c(Cl)c1 (stereo not drawn) [Miconazole, reference compound]
MIC99 (Candida albicans): 0.25 to 60 mg/L (≈ 0.601 to 144 µM)

(±)cis-4H-3a,4,12b-trihydro-2,2-dimethyl-1,3-dioxolo[4,5-h]benzofuro[3,2-g]benzopyran [Compound 21]
MIC99 C. albicans (Candida albicans): > 400 mg/L
IC50 (L1210 cells): 12.8535 mg/L
